Measured values: patent US6080780A, “Use of nitroflavonoids for the treatment of anxiety” (University of Strathclyde, priority 1995, dated 2000)
Where two headings read alike, the source gives them in different places.

Tests used:
[1] = target: central benzodiazepine receptors (BDZ-Rs); assay: 3H-FNZ binding to rat brain synaptosomal membranes (Section 3)
Description: In brief, for each assay, triplicate samples of the membranes, containing 0.2 to 0.4 mg protein were suspended in a final volume of 1 mL of 0.25 mM Tris--HCl buffer, pH 7.3. The incubation was carried out at 4° C. for 60 min with 0.6 nM ^3 H--FNZ. to study the binding saturation, a range of 0.3 to 10 nM ^3 H--FNZ was used. […] The assays were terminated by filtration under vacuum through Whatman GF/A glass-fiber filters, and three washes with 3 mL each of incubation medium. Filters were dried and counted after the addition of 5 mL of 2,5-diphenyloxazole/xylene as scintillation fluid.
The binding of ^3 H--FNZ was carried out as for (i) above.

mice [2] = assay: Elevated plus-maze, compound (IV); assay type: in vivo, male Swiss mice; conditions: i.p., 0.1 mg/kg, preliminary
Description: The animals used in the pharmacological test were male Swiss mice from our breeding stock, weighting 28-35 g. They were placed in groups of ten with free access to water and food, and maintained on 12 h/12 h day/night cycle. The elevated plus-maze set-up consisted of a maze of two open arms, 25×5 cm, crossed by two closed arms of the same dimensions, with free access to all arms from the crossing point. The closed arms had walls 35 cm high all around. The maze was suspended 50 cm from the room floor. Mice were placed on the central part of the cross facing an open arm. The number of entries and the time spend going into open and closed arms were counted during 5 min. A selective increase in the parameters corresponding to open arms revels an anxiolytic effect. The total exploratory activity (number of entries in both arms) was also determined according to the method of Pellow, S. J. et al. Neurosci. Meth. 1986, 14, 149; Lister, R. G. Psychopharmacology 1987, 92, 180).

GABAA receptors = assay: 3H-muscimol binding, compound (IV); conditions: 10 μM
[3] = test system: cholinergic-muscarinic receptors; assay type: binding; conditions: 10 μM
AMPA-glutamate receptors = assay: 3H-AMPA binding, compound (IV); conditions: 10 μM
serotonin 1A receptors = assay: 3H-8-OH-DPAT binding, compound (IV); conditions: 10 μM
[4] = target: benzodiazepine (BDZ-R) receptor; assay: 3H-Flunitrazepam binding to extensively washed bovine cerebral cortical membranes; conditions: read-out: Ki, inhibition of 3H-FNZ binding; bovine cerebral cortical membranes; 0.6 nM 3H-FNZ, 4° C., 60 min; n=3
Description: Non-specific nitration of the flavone nucleus yielded the two nitrated flavone (II) and (IIa). […] Briefly, ^3 H-FNZ binding was carried out as described by Levy de Stein, M., Medina, J. H., De Robertis E., Mol. Brain Res. 1985, 5, 9-15. In brief, for each assay, triplicate samples of the membranes, containing 0.2 to 0.4 mg protein were suspended in a final volume of 1 mL of 0.25 mM Tris-HCl buffer, pH 7.3. The incubation was carried out at 4° C. for 60 minutes with 0.6 nM ^3 -FNZ. To study the binding saturation, a range of 0.3 to 10 nM ^3 H-FNZ was used. Non-specific binding was determined in parallel incubations in the presence of 3 μM FNZ, and represented 5-15% of total. The assays were terminated by filtration under vacuum though Whatman GF/A glass-fiber filters, and three washes with 3 mL each of incubation medium. Filters were dried and counted after the addition of 5 mL of 2,5-diphenyloxazole/xylene as scintillation fluid. Bovine cerebral cortical membranes were treated substantially following the method of Medina, J. H., De Robertis, E. J., J. Neurochem. 1985, 44, 1340-1345.

[5] = target: central benzodiazepine receptor; assay: [3H]-FNZ binding to crude synaptosomal membranes from rat CNS regions; set-up: species or system rat (Wistar)
Description: (§1) Adult male Wistar rats weighing 250 g were used for biochemical experiments. Adult male Swiss male weighing 25-30 g were used for pharmacological assays except for inhibitory avoidance and tail flick tests were done in rats. Animals were housed in a controlled environment, with free access to food and water and maintained on a 12 h/12 h day/night cycle.
Displacement curves were performed using [^3 ]-FNZ or [^3 H]-zolpidem ([^3 H]-ZOLP) as radioligands in washed crude synaptosomal membranes from rat cerebral cortex, cerebellum, hippocampus, striatum or spinal cord. Membrane preparations were carried out according to Medina et al. (1990). Briefly, brains were rapidly dissected out on ice and the different structures were homogenized in 10 volumes of 0.32 M sucrose and centrifuged at 900×g for 10 min. The resulting supernatant was centrifuged at 100,000×g for 30 min and the pellet washed twice in 25 mM Tris HCl buffer pH 7.4 at 100,000×g for 30 min, and stored at -20° C. until used.
For [^3 H]-FNZ (84 Ci/mmol, NEN) displacement curves, different concentrations of DNF (0.3 nM to 1 μM) were added to 0.3 mg membrane protein suspended in 1 ml of 25 mM Tris HCl buffer in presence of 0.6 nM of the radioligand. Protein determination was carried out by using the method of Lowry et al. (1951). Nonspecific binding (<5%) was determined in parallel incubations with 10 μM FNZ (Hoffmann-La Roche). The incubation was carried out at 4° C. for 2 h. The assays were determined by filtration under vacuum through Whatman GF/A glass fiber filters, and two washes with 3 ml each of incubation medium. Filters were dried and counted after the addition of 5 ml 2,5-diphenyl-oxazole (PPO)-xylene as scintillation fluid.

mice [6] = assay: Elevated plus-maze test in mice (Section 1, incl. Table 1); assay type: in vivo, male Swiss mice; conditions: Mus musculus, ip, read-out: minimum dose necessary to produce similar anxiolytic effects
Description: Performance of mice on the elevated plus-maze test was used to measure anxiolytic actions in rodents, following i.p. administration of vehicle or compound (II).
The animals used in the pharmacological test were male Swiss mice from breeding stock, weighing 28-35 g. They were placed n groups of ten with free access to water and food, and maintained on 12 h/12 h day/night cycle. In all the tests the mice were i.p. injected with VEH or a solution of the drug, 15 minutes before the assay.
The elevated plus-maze set-up consisted of a maze of two open arms, 25×5 cm, crossed by two closed arms of the same dimensions, with free access to all arms from the crossing point. The closed arms had walls 35 cm high all around. The maze was suspended 50 cm from the room floor. Mice were placed on the central part of the cross facing an open arm. The number of entries and the time spent going into open and closed arms were counted during 5 minutes. […] The total exploratory activity (number of entries in both arms) was also determined.

mice [7] = assay: Elevated plus maze test in mice (Section 2); assay type: in vivo, male Swiss mice; conditions: mice
Description: as §1
An Opto-varimex® apparatus was used according to Viola et al. (1994). The apparatus discriminates between total and ambulatory activities. An increase in the number of transitions through the beams reflects augmented locomotor activity. In this and all following tests in mice, animals were i.p. injected with the vehicle, or with DNF 20 min before the beginning of the tests. In each session, control mice were tested in parallel with those animals receiving drug treatment.
The test was performed in the same session immediately after the locomotor activity measurement (Viola et al., 1994; Wolfman et al., 1994). […] A series of experiments with the injection of the selective central benzodiazepine receptor antagonist Ro 15-1788 (File and Pellow, 1986) was also carried out.

mice [8] = assay: Horizontal wire test in mice; assay type: in vivo, male Swiss mice; conditions: mice, i.p.
Description: as §1
This test was carried out as previously described (Viola et al., 1994; Wolfman et al., 1994; Viola et al., 1995). The test took place after two trials, performed at 5 min intervals. A myorelaxant drug will impair mice to grasp the wire (Bonetti et al., 1982). The effect of DNF )1 mg/kg) on DZ-induced myorelaxation was also determined.

mice [9] = assay: Holeboard test in mice; assay type: in vivo, male Swiss mice; conditions: mice, 1 mg/kg; vehicle=8.5±1.2, p<0.001
Description: as §1
The test was performed according to Viola et al. (1994) and Wolfman et al. (1994). The number of head dips and the time spent head dipping were counted during 5 min.

mice [10] = assay: Pentylenetetrazole (PTZ)-induced seizures; assay type: in vivo
Description: The effects of DNF on pentylenetetrazole (PTZ)--induced convulsions were evaluated according to Medina et al., (1990) with slight modifications. PTZ (200 mg/kg) was administered i.p. to mice 15 min after injection of drug or vehicle. The number of mice presenting clonic convulsions was determined.
Data are expressed as the percentage of mice presenting clonic or tonic-clonic seizures. ^3 number of animals per group.

[11] = rat cerebral cortex, read-out: Ki, 3H-FNZ binding

O=c1cc(-c2cccc([N+](=O)[O-])c2)oc2ccc(Cl)cc12 [(VIII), 6-Chloro-3'-nitroflavone]
Ki [1, 11]: 8 nM

O=c1cc(-c2cccc([N+](=O)[O-])c2)oc2ccc(Br)cc12 [Compound (IV), 6-bromo-3'-nitroflavone]
percentage of entries in the open arms (mice [2]): increasing both the percentage of entries in the open arms | time spent in the open arms (mice [2]): increasing both the percentage of entries in the open arms and the time spent in these arms | displacement of [3H]-muscimol binding (GABAA receptors): does not displace | displacement of 3H-QNB binding [3]: does not displace | displacement of 3H-AMPA binding (AMPA-glutamate receptors): does not displace | displacement of 3H-8-OH-DPAT binding (serotonin 1A receptors): does not displace | Ki ([1]; cerebellum, n=4, read-out: Ki SEM, 3H-FNZ binding): 3.6 ± 0.1 nM | Ki ([1]; cerebral cortex, first (high affinity) population of sites, n=6, read-out: Ki SEM, 3H-FNZ binding): 1.2 nM | Ki ([1]; cerebral cortex, second population of sites, n=6, read-out: Ki SEM, 3H-FNZ binding): 15.5 nM | Scatchard analysis of 3H-FNZ saturation curves ([1]; cerebral cortical membranes, data not shown): competitive ligand for the BDZ-R | Ki ([1]; hippocampus, n=2, read-out: Ki SEM, 3H-FNZ binding): 9.6 ± 0.6 nM | Ki [1, 11]: 220 ± 1 nM | affinity in spinal cord vs highest value in cerebral cortex ([1]; ratio): 10 times lower | potency for displacement of 3H-FNZ, type II BDZ-R regions vs cerebellum ([1]; ratio): 3-4 times lower | Ki ([1]; spinal cord, n=3, read-out: Ki SEM, 3H-FNZ binding): 12.7 ± 0.5 nM | Ki ([1]; striatum, n=3, read-out: Ki SEM, 3H-FNZ binding): 9.8 ± 1.6 nM

O=c1cc(-c2ccc([N+](=O)[O-])cc2)oc2ccc(Br)cc12 [Compound (V), 6-bromo-4'-nitroflavone]
Ki [1, 11]: 220 nM

O=c1cc(-c2ccc([N+](=O)[O-])cc2)oc2ccc([N+](=O)[O-])cc12 [(IIa), 6,4'-Dinitroflavone]
Ki [4]: 17 ± 5 µM

O=c1cc(-c2ccccc2[N+](=O)[O-])oc2ccc(Br)cc12 [Compound (III), 6-bromo-2'-nitroflavone]
Ki [1, 11]: 208 nM

O=c1cc(-c2cccc([N+](=O)[O-])c2)oc2ccc(F)cc12 [(IX), 6-Fluoro-3'-nitroflavone]
Ki [1, 11]: 170 nM

Cc1nnc2ccc(-c3cccc(C(F)(F)F)c3)nn12 [CL 218,872, reference compound]
Ki ([5]; cortical membranes, high affinity site, read-out: high affinity Ki value): 10 nM | Ki ([5]; cortical membranes, low affinity site, read-out: low affinity Ki value): 1200 nM

O=c1cc(-c2cccc([N+](=O)[O-])c2)oc2ccccc12 [(VI), 3'-nitroflavone]
Ki [1, 11]: 250 nM

CN1C(=O)CN=C(c2ccccc2)c2cc(Cl)ccc21 [Diazepam, reference compound]
Ki ([5]; all the brain regions studied, read-out: Ki, [3H]-FNZ binding): ~7 nM | minimal effective dose (mice [6]): 0.03 mg/kg | dose needed to increase open arm entries relative to DNF (mice [7]): 10-100 times higher | percentage of open arm entries (mice [7]; 0.3 mg/kg, vehicle=22.9±2.0%, p<0.05): 35.0±4.5% | myorelaxant effect (mice [8]; 1 mg/kg): marked myorelaxant effect | animals showing myorelaxant effect (mice [8]; DZ 1 mg/kg): 8 animals out of 10 | head dips (mice [9]): 1.2±0.5 | % of convulsing mice (mice [10]; DZ 0.3 mg/kg, n=6, p<0.001 (VEH + PTZ 96)): 33.3% | % of convulsing mice (mice [10]; DZ 1.0 mg/kg, n=12, p<0.001): 42% | % of convulsing mice (mice [10]; DZ 3.0 mg/kg, n=9, p<0.001): 0% | anticonvulsant activity vs PTZ (mice [10]; mice, 0.3-3 mg/kg, p<0.001, PTZ 200 mg/kg): showed anticonvulsant activity
